How the values were obtained:
Sprague Dawley (SD) rats [1] = assay: Ophthalmic examination; type: in vivo, rat; conditions: 2.4 mg/kg/day; both genders; end of dosing phase and recovery phase
Method: The examination was conducted on rats in control and 2.4 mg/kg/day groups at the end of dosing phase (Day 27) and at the end of recovery phase (Recovery day 27). The mydriasis (eye instillation, 1-2 drops/eye) was conducted using Mydrin-P (compound tropicamide eye drops) before examination. Binocular indirect ophthalmoscope was used to examine conjunctiva, cornea, iris, lens, anterior chamber, posterior chamber and fundus.

µ-opioid receptor (MOR) = test system: µ-opioid receptor (MOR); design: method as in Yang et al., 2022; conditions: ref Yang et al., 2022, cited from earlier work
Sprague Dawley (SD) rats [2] = assay: Histopathology, 4-week subacute toxicity study; type: in vivo, rat; conditions: for Epididymis: Cell debris, lumen, Grade: 1 (minimal), animals / Epididymis: Cell debris, lumen, Grade: 3 (moderate), animals / Epididymis: Cell debris, lumen, Total Incidence / Epididymis: Sperm, decreased, lumen, Grade: 4 (marked), animals / Epididymis: Sperm, decreased, lumen, Total Incidence / Testis: Degeneration, tubule, Grade: 2 (mild), animals / Testis: Degeneration, tubule, Total Incidence: M
Method: The tissues in the Table 2 were preserved in 10% neutral phosphate-buffered formalin. Bilateral eyes, optic nerves, testes, epididymides and Harderian glands were fixed in modified Davidson’s solution. For all the above tissues in all groups, sampling, paraffin embedding, sectioning and hematoxylin-eosin staining was performed, followed by histopathology examination microscopically with light microscopy.

[3] = 0.6 mg/kg/day, end of dosing phase, 10 examined
[4] = 1.2 mg/kg/day, end of dosing phase, 10 examined
[5] = 2.4 mg/kg/day, end of dosing phase, 9 examined

## Fc1ccc([C@]2(CCNCc3cccc(Cl)c3)CCO[C@]3(CCOC3)C2)nc1 [LPM3480392]
Sprague Dawley (SD) rats [1]
  Ophthalmic examination findings: No abnormalities
µ-opioid receptor (MOR)
  Emax, in vitro biased agonism: 91.4%
µ-opioid receptor (MOR); read-out: EC50, in vitro biased agonism
  EC50: 0.35 nM
Sprague Dawley (SD) rats [2]; [3]
  Epididymis: Cell debris, lumen, Grade: 1 (minimal), animals: 0
  Epididymis: Cell debris, lumen, Grade: 3 (moderate), animals: 0
  Epididymis: Cell debris, lumen, Total Incidence: 0
  Epididymis: Sperm, decreased, lumen, Grade: 4 (marked), animals: 0
  Epididymis: Sperm, decreased, lumen, Total Incidence: 0
  Testis: Degeneration, tubule, Grade: 2 (mild), animals: 0
  Testis: Degeneration, tubule, Total Incidence: 0
Sprague Dawley (SD) rats [2]; [4]
  Epididymis: Cell debris, lumen, Grade: 1 (minimal), animals: 0
  Epididymis: Cell debris, lumen, Grade: 3 (moderate), animals: 0
  Epididymis: Cell debris, lumen, Total Incidence: 0
  Epididymis: Sperm, decreased, lumen, Grade: 4 (marked), animals: 0
  Epididymis: Sperm, decreased, lumen, Total Incidence: 0
  Testis: Degeneration, tubule, Grade: 2 (mild), animals: 0
  Testis: Degeneration, tubule, Total Incidence: 0
Sprague Dawley (SD) rats [2]; [5]
  Epididymis: Cell debris, lumen, Grade: 1 (minimal), animals: 1
  Epididymis: Cell debris, lumen, Grade: 3 (moderate), animals: 1
  Epididymis: Cell debris, lumen, Total Incidence: 2
  Epididymis: Sperm, decreased, lumen, Grade: 4 (marked), animals: 1
  Epididymis: Sperm, decreased, lumen, Total Incidence: 1
  Testis: Degeneration, tubule, Grade: 2 (mild), animals: 1
  Testis: Degeneration, tubule, Total Incidence: 1
Sprague Dawley (SD) rats [2]; end of dosing phase and recovery phase
  Microscopic changes in brain, heart, liver, spleen, lungs, kidney, adrenal gland, thymus, lymph node, gastrointestinal tract: no microscopic changes
Sprague Dawley (SD) rats [2]; males, 2.4 mg/kg/day, end of dosing phase
  Mild tubular degeneration of the testis, incidence: 1/9

Reference: article PMC10436550, “Subacute toxicity evaluations of LPM3480392 in rats, a full µ-opioid receptor biased agonist” (Frontiers in Pharmacology, 2023)
